The results in this text go back to ChEMBL document CHEMBL1156282, “4-Substituted-7-azaindoles bearing a ureidobenzofuranone moiety as potent and selective, ATP-competitive inhibitors of the mammalian target of rapamycin (mTOR)” (Bioorg Med Chem Lett, 2010).

Molecules are shown by their SMILES. Some results are limits rather than exact numbers.

Assay [1] can be described thus: Selectivity ratio of IC50 for PI3Kalpha to IC50 for mTOR.
Assay [2] deals with LNCaP. Put plainly: Antiproliferative activity against human LNCAP cells. It is filed as functional, cell-based.
For assay [3], the target named is Serine/threonine-protein kinase mTOR (Homo sapiens, UniProt P42345). Put plainly: Inhibition of mTOR.
Assay [4] deals with Phosphatidylinositol 4,5-bisphosphate 3-kinase catalytic subunit alpha isoform (Homo sapiens, UniProt P42336). As to the kind of experiment: Inhibition of PI3Kalpha.
Phosphatidylinositol 4,5-bisphosphate 3-kinase catalytic subunit alpha isoform, sequence (P42336 whole entry, canonical isoform): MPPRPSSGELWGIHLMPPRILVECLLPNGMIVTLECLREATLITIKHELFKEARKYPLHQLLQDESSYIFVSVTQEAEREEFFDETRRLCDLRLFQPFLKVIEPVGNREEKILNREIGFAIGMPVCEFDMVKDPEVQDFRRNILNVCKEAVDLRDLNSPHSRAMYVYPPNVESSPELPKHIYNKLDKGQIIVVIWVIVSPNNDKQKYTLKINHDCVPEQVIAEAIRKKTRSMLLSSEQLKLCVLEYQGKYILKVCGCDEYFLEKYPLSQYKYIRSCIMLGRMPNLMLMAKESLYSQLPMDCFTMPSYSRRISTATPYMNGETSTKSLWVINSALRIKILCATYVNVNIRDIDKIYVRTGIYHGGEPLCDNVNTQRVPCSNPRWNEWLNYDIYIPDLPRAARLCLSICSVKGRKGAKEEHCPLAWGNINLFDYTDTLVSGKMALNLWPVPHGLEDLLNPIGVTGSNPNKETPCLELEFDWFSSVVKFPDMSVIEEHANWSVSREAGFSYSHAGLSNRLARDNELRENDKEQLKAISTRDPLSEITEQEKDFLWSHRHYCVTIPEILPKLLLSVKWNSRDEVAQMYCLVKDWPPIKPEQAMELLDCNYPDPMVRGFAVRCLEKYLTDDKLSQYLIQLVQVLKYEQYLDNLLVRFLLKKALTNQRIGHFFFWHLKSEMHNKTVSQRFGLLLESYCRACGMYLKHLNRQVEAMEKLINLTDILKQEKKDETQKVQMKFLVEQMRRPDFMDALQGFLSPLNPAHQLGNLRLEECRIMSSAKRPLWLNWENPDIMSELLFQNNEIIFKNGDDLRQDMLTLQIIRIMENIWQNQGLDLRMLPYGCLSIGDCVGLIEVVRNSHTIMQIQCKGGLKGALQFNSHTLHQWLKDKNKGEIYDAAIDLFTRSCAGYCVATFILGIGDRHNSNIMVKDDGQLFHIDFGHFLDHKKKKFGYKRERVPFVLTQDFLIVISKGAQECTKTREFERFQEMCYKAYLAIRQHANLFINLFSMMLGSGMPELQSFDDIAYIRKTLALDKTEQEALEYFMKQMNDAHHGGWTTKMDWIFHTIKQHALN

Regarding `Cn1cc(/C=C2\Oc3ccc(NC(=O)Nc4cccnc4)cc3C2=O)c2c(N3CCC(C(=O)N4CCCCC4)CC3)ccnc21`, the Ratio IC50 in assay [1] was found to be 12.6. Further, in assay [2], the 50% inhibitory concentration (IC50) (usually the point on the concentration scale where inhibition reaches its midpoint) is 18 nM. Consider `Cn1cc(/C=C2\Oc3ccc(NC(=O)Nc4cccnc4)cc3C2=O)c2c(N3CCC(C(=O)N4C5CCC4COC5)CC3)ccnc21`, for which the IC50 in assay [2] was 200 nM. Take `CN(Cc1ccccc1)C(=O)C1CCN(c2ccnc3c2c(/C=C2\Oc4ccc(NC(=O)Nc5cccnc5)cc4C2=O)cn3C)CC1`: the IC50 was 102 nM in assay [3], greater than 10000 nM in assay [4] and 20 nM in assay [2].

The compound `Cn1cc(/C=C2\Oc3ccc(NC(=O)Nc4cccnc4)cc3C2=O)c2c(N3CCOCC3)ccnc21` returned a 50% inhibitory concentration (IC50) in assay [2] of 50 nM. As to `Cn1cc(/C=C2\Oc3ccc(NC(=O)Nc4cccnc4)cc3C2=O)c2c(N3CCC(C(=O)NCc4cccnc4)CC3)ccnc21`, the values for the half-inhibitory concentration (IC50) in assay [3], in assay [4] and in assay [2] were 9 nM, 4040 nM and 60000 nM, respectively. Also, in assay [1], the Ratio IC50 was 450. With `Cn1cc(/C=C2\Oc3ccc(NC(=O)Nc4cccnc4)cc3C2=O)c2c(N3CCC(C(=O)N4CC5CCC(C4)O5)CC3)ccnc21`, the half-maximal inhibitory concentration (IC50) in assay [2] turned out to be 90 nM. As to `CN(C)C1CCN(C(=O)C2CCN(c3ccnc4c3c(/C=C3\Oc5ccc(NC(=O)Nc6cccnc6)cc5C3=O)cn4C)CC2)C1` (configuration not stated), the concentration for half-maximal inhibition (IC50) in assay [3] was 11 nM; in assay [4], greater than 10000 nM; in assay [2], 2300 nM. Regarding `Cn1cc(/C=C2\Oc3ccc(NC(=O)Nc4ccccc4)cc3C2=O)c2c(N3CC4CCC(C3)O4)ccnc21`, the Ratio IC50 in assay [1] came out at 3.4. In assay [2], this compound showed an IC50 of 280 nM. With `CN(C(=O)C1CCN(c2ccnc3c2c(/C=C2\Oc4ccc(NC(=O)Nc5cccnc5)cc4C2=O)cn3C)CC1)c1cccnc1`, in assay [2], inhibition was half-maximal at 300 nM (IC50). That is a sub-micromolar value. `Cn1cc(/C=C2\Oc3ccc(NC(=O)Nc4cccnc4)cc3C2=O)c2c(N3CCC(C(=O)N4CCCC4)CC3)ccnc21`: the Ratio IC50 in assay [1] turned out to be 111. The same compound showed an IC50 in assay [2] of 12 nM.

In assay [2], `Cn1cc(/C=C2\Oc3ccc(NC(=O)Nc4cccnc4)cc3C2=O)c2c(N3CC4CCC(C3)O4)ccnc21` returned an IC50 of 15 nM. In turn, `CNC(=O)Nc1ccc2c(c1)C(=O)/C(=C/c1cn(C)c3nccc(N4CC5CCC(C4)O5)c13)O2` showed an IC50 in assay [2] of 140 nM. In assay [2], `CN(Cc1ccccn1)C(=O)C1CCN(c2ccnc3c2c(/C=C2\Oc4ccc(NC(=O)Nc5cccnc5)cc4C2=O)cn3C)CC1` registered an IC50 of 40 nM.

`CN(Cc1ccncc1)C(=O)C1CCN(c2ccnc3c2c(/C=C2\Oc4ccc(NC(=O)Nc5cccnc5)cc4C2=O)cn3C)CC1`: in assay [1], the Ratio IC50 came out at 132. In assay [2], this compound displayed an IC50 of 23 nM.

On to `Cn1cc(/C=C2\Oc3ccc(NC(=O)Nc4cccnc4)cc3C2=O)c2c(N3CC4CCC3CO4)ccnc21` (configuration not stated), for which the concentration for half-maximal inhibition (IC50) in assay [4] was 249 nM; in assay [2], 1.8 nM. As to `CNC(=O)Nc1cccc2c1C(=O)/C(=C/c1cn(C)c3nccc(-c4ccccc4)c13)O2`, the half-maximal inhibitory concentration (IC50) in assay [2] is greater than 60000 nM. `CNC(=O)Nc1ccc2c(c1)C(=O)/C(=C/c1cn(C)c3nccc(-c4ccccc4)c13)O2` registered an IC50 in assay [2] of 60000 nM. In other words, the double-digit micromolar range. Compound `CCNC(=O)Nc1ccc2c(c1)C(=O)/C(=C/c1cn(C)c3nccc(N4CC5CCC(C4)O5)c13)O2` showed an IC50 in assay [2] of 2800 nM. In assay [2], `CCN(CC)C(=O)C1CCN(c2ccnc3c2c(/C=C2\Oc4ccc(NC(=O)Nc5cccnc5)cc4C2=O)cn3C)CC1` had an IC50 of 50 nM. As to `Cn1cc(/C=C2\Oc3cccc(O)c3C2=O)c2c(-c3ccccc3)ccnc21`, the Ratio IC50 in assay [1] came to 25.4. In assay [2], this compound returned an IC50 of 200 nM. For the compound `Cn1cc(/C=C2\Oc3ccc(NC(=O)Nc4cccnc4)cc3C2=O)c2c(N3CCC(C(=O)N4CCOCC4)CC3)ccnc21`, the IC50 in assay [4] was 2660 nM; in assay [2], 3200 nM. Also, the Ratio IC50 in assay [1] was determined as 148. `CN(C)C(=O)C1CCN(c2ccnc3c2c(/C=C2\Oc4ccc(NC(=O)Nc5cccnc5)cc4C2=O)cn3C)CC1` had a 50% inhibitory concentration (IC50) in assay [2] of 80 nM.

In the case of `Cn1cc(/C=C2\Oc3ccc(NC(=O)Nc4cccnc4)cc3C2=O)c2c(N3C4CCC3COC4)ccnc21`, the IC50 in assay [4] was determined as 128 nM; in assay [2], 6 nM. Besides, the Ratio IC50 in assay [1] was 3. Turning to `CN(Cc1cccnc1)C(=O)C1CCN(c2ccnc3c2c(/C=C2\Oc4ccc(NC(=O)Nc5cccnc5)cc4C2=O)cn3C)CC1`, the half-maximal inhibitory concentration (IC50) in assay [2] stood at 3200 nM. Take `CN1CCN(C(=O)C2CCN(c3ccnc4c3c(/C=C3\Oc5ccc(NC(=O)Nc6cccnc6)cc5C3=O)cn4C)CC2)CC1`: the IC50 in assay [3] was 70 nM; in assay [2] it was 330 nM. For the same compound, the Ratio IC50 in assay [1] came out at 65.7. In assay [2], `CN(C)CCNC(=O)Nc1ccc2c(c1)C(=O)/C(=C/c1cn(C)c3nccc(N4CC5CCC(C4)O5)c13)O2` registered a half-maximal inhibitory concentration (IC50) of 60 nM. With `Cn1cc(/C=C2\Oc3ccc(NC(=O)Nc4ccc(N5CCOCC5)nc4)cc3C2=O)c2c(N3CC4CCC(C3)O4)ccnc21`, the Ratio IC50 in assay [1] amounted to 76.6. In assay [2], this compound came in with a concentration for half-maximal inhibition (IC50) greater than 60000 nM.
